Laboratory results taken from patent US20230348486A1, “NEAR-INFRARED EMITTING PORPHYRIN COMPOUND AND PREPARATION METHOD AND USE THEREOF” (PEKING UNIVERSITY, priority 2020, published 2023).

How the values were obtained:
[1] = system: A375 human malignant melanoma cells; assay: Animal test of photodynamic therapy, subcutaneous tumor model; format: in vivo, BALB/C nude mice; settings: skin application, 10 mg·kg^-1, light 400-700 nm, 2 weeks, FIG. 2
Method: BALB/C nude mice, which were 4-5 weeks old, females, 16-25 grams, were used in the in vivo experiment. Each mouse was inoculated with 100ul (5×10^6) of A375 human malignant melanoma cells subcutaneously in the right scapula, and the experiment was carried out two weeks later.
The nude mice were randomly individed to control group and skin application group with 6 mice in each group. The control group was only irradiated with light (tungsten lamp, 400-700 nm, 6.5 mW/cm^2) without administration, and the 1 mM/20 ul aqueous solution of molecule 6 was administrated to the skin application group in an amount of 10 mg·kg^-1 based on the weights of the nude mice. After administrated, the animals were protected from light for 24 hours, and then were each individually irradiated on their tumor sites for 30 minutes a day for consecutive 3 days. The nude mice were not protected from light after the treatment, and were took care in a breeding cage to observe the side effects such as skin phototoxicity appeared on each group of nude mice. After irradiated, the weights of nude mice were measured and their tumor volume were determined with vernier calipers every two days. After 2 weeks of treatment, the lumps were peeled off and weighed.

[2] = system: HeLa human cervical cancer cells; assay: Cytophototoxicity test (CCK-8) under white light; format: cell-based; settings: 24 h incubation in the dark, white light 400-700 nm, about 6.5 mW/cm^2, 30 minutes, CCK-8 after 24 hours, read-out: median lethal concentration IC50
Method: (§1) The cells used in the experiment included HeLa human cervical cancer cells, HepG2 human liver cancer cells, A375 human malignant melanoma cells, MCF7 human breast cancer cells, and HCT 116 human colon cancer cells. The cells were cultured in DMEM complete medium supplemented with 10% inactivated fetal bovine serum and 1% penicillin-streptomycin at 37° C. under the atmosphere of 5% carbon dioxide.
(§2) After trypsinized, the subculture HeLa cells were dispersed in the medium at appropriate concentration. Then, the dispersed HeLa cells were seeded into a poly-D-lysine modified flat-bottom 96-well plate, so that the amount of medium and the number of cells in each well were 200 µL and about 10^4, respectively, except a group of wells containing medium free of cells for blank control. After culturing the cells in the dark for 24 hours, the medium was removed, and 100 µL of fresh medium and 100 µL of pre-prepared medium solution containing molecule 6 synthesised in Example 6 were added, and then the sample was diluted to a gradient concentration of 0.1-5 µM. After culturing in the dark for another 24 hours, the medium was removed, and each well was rinsed 3 times with PBS (pH=7.4). 100µL of PBS buffer was added to each well, and irradiated
(§3) by white light (400-700 nm) with the same light intensity (about 6.5 mW/cm^2) under bromo-tungsten lamp for 30 minutes. The PBS in each well was removed and replaced with 200 µL of fresh medium to continue culturing for 24 hours. After that, the medium was removed and the wells were rinsed 3 times with PBS. Then 100 µL of 10% CCK-8 reagent (Cell Counting Kit-8) formulated with medium was added into each well to culture the cells for 2 hours. Meanwhile, 2-(2-methoxy-4-nitrophenyl)-3-(4-nitrophenyl)-5-(2,4-disulfonic acid benzene)-2H-[…] monosodium salt (WST-8) can be reduced by living cells together with electronic coupling reagents to yield a yellow product of formazan, accordingly changing the absorbance of the solution at 450 nm, and there was a direct proportional relationship between the change level and the number of living cells. The absorbance change of each well at 450 nm was measued by a microplate reader, and the cell survival rates at various culture concentrations were calculated according to the following equation: […]
(§4) wherein CV refers to the cell survival rate; As, Ac and Ab refer to the absorbance of the cells cultured with the compound, the absorbance of the cells cultured without the compound and the absorbance of the blank control, respectively.
(§5) The median lethal concentrations IC50 of molecule 6 in different cell lines were calculated according to the cell survival rates at various culture concentrations, and the results were shown as follows: […]

[3] = system: HepG2 human liver cancer cells; assay: Cytophototoxicity test (CCK-8) under white light; format: cell-based; settings: 0.5 h, white light 400-700 nm, about 6.5 mW/cm^2, 30 minutes, read-out: median lethal concentration IC50
Method: as §1, §2, §3, §4, §5

[4] = system: HCT 116 human colon cancer cells; assay: Cytophototoxicity test (CCK-8) under white light; format: cell-based; settings: HCT-116, 0.5 h, HCT116, white light 400-700 nm, about 6.5 mW/cm^2, 30 minutes, read-out: median lethal concentration IC50
Method: as §1, §2, §3, §4, §5

[5] = system: MCF7 human breast cancer cells; assay: Cytophototoxicity test (CCK-8) under white light; format: cell-based; settings: 0.5 h, white light 400-700 nm, about 6.5 mW/cm^2, 30 minutes, read-out: median lethal concentration IC50
Method: as §1, §2, §3, §4, §5

[6] = system: A375 human malignant melanoma cells; assay: Cytophototoxicity test (CCK-8) under white light; format: cell-based; settings: A-375, 0.5 h, white light 400-700 nm, about 6.5 mW/cm^2, 30 minutes, read-out: median lethal concentration IC50
Method: as §1, §2, §3, §4, §5

## C[N+](C)(C)c1c(F)c(F)c(-c2c3nc(c(-c4c(F)c(F)c([N+](C)(C)C)c(F)c4F)c4ccc([nH]4)c4c(nc5oc6c(F)c([N+](C)(C)C)c(F)c(F)c6c5c5ccc2[nH]5)oc2c(F)c([N+](C)(C)C)c(F)c(F)c24)C=C3)c(F)c1F [molecule 6]
[1]; 6.5 mW/cm^2, 30 minutes a day for 3 days
  change of tumor size (growth of subcutaneous tumors): effectively inhibit the growth of subcutaneous tumors
[1]; 30 minutes a day for 3 days
  change of weight of the mice: no significant decrease
[2]
  IC50: 2690 ± 100 nM
[3]
  IC50: 800 ± 100 nM
[4]
  IC50: 1520 ± 200 nM
[5]
  IC50: 850 ± 100 nM
[6]
  IC50: 4750 ± 500 nM
